# From PubChem BioAssay (NCI)
# Values joined by “and” are separate entries in the source; they are usually repeats but may differ in a detail not shown here. Identical values can stand only once.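 Method: 48-hour compound exposure of cells in 96-well plates, five concentrations, linear interpolation of endpoints. At the GI50, growth is halved. The concentration for full growth arrest is given as TGI.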
# Assays:
# Test in all cases: growth of human tumour cells (NCI), 48 h
# 786-0 renal = tested on: 786-0 renal
# SF-539 CNS = tested on: SF-539 CNS
# TK-10 renal = tested on: TK-10 renal
# UACC-62 melanoma = tested on: UACC-62 melanoma
# HCT-116 colon = tested on: HCT-116 colon
# MDA-MB-231 breast = tested on: MDA-MB-231 breast
# HCT-15 colon = tested on: HCT-15 colon
# LOX IMVI melanoma = tested on: LOX IMVI melanoma
# IGROV1 ovarian = tested on: IGROV1 ovarian
# SK-MEL-2 melanoma = tested on: SK-MEL-2 melanoma
# SN12C renal = tested on: SN12C renal
# UACC-257 melanoma = tested on: UACC-257 melanoma
# CAKI-1 renal = tested on: CAKI-1 renal
# OVCAR-4 ovarian = tested on: OVCAR-4 ovarian
# RXF 393 renal = tested on: RXF 393 renal
# HOP-92 NSCLC = tested on: HOP-92 NSCLC
# SK-OV-3 ovarian = tested on: SK-OV-3 ovarian
# NCI-H23 lung = tested on: NCI-H23 lung
# PC-3 prostate = tested on: PC-3 prostate
# SF-295 CNS = tested on: SF-295 CNS
# SNB-19 CNS = tested on: SNB-19 CNS
# DU-145 prostate = tested on: DU-145 prostate
# K-562 leukemia = tested on: K-562 leukemia
# HCC-2998 colon = tested on: HCC-2998 colon
# SNB-75 CNS = tested on: SNB-75 CNS
# MOLT-4 leukemia = tested on: MOLT-4 leukemia
# NCI-H522 lung = tested on: NCI-H522 lung
# OVCAR-3 ovarian = tested on: OVCAR-3 ovarian
# M14 melanoma = tested on: M14 melanoma
# MDA-N = tested on: MDA-N
# SK-MEL-5 melanoma = tested on: SK-MEL-5 melanoma
# SK-MEL-28 melanoma = tested on: SK-MEL-28 melanoma
# HS 578T breast = tested on: HS 578T breast
# MDA-MB-435 = tested on: MDA-MB-435
# NCI/ADR-RES ovarian = tested on: NCI/ADR-RES ovarian
# HT29 colon = tested on: HT29 colon
# CCRF-CEM leukemia = tested on: CCRF-CEM leukemia
# U251 CNS = tested on: U251 CNS
# EKVX NSCLC = tested on: EKVX NSCLC
# UO-31 renal = tested on: UO-31 renal
# OVCAR-5 ovarian = tested on: OVCAR-5 ovarian
# ACHN renal = tested on: ACHN renal
# COLO 205 colon = tested on: COLO 205 colon
# HOP-62 NSCLC = tested on: HOP-62 NSCLC
# T-47D breast = tested on: T-47D breast
# NCI-H226 lung = tested on: NCI-H226 lung
# KM12 colon = tested on: KM12 colon
# RPMI-8226 leukemia = tested on: RPMI-8226 leukemia
# OVCAR-8 ovarian = tested on: OVCAR-8 ovarian
# SW-620 colon = tested on: SW-620 colon
# A498 renal = tested on: A498 renal
# MCF7 breast = tested on: MCF7 breast
# HL-60(TB) leukemia = tested on: HL-60(TB) leukemia
# MALME-3M melanoma = tested on: MALME-3M melanoma
# SF-268 CNS = tested on: SF-268 CNS
# SR leukemia = tested on: SR leukemia
# NCI-H460 lung = tested on: NCI-H460 lung
# A549 NSCLC = tested on: A549 NSCLC
structure (smiles),measurement,setting,value
CCC(C)(CC(C)(C)C(=O)NCC(=O)NC(Cc1ccccc1)C(=O)NC(Cc1ccccc1)C(=O)NCC(=O)NC1CC(OC2CC(O)(C(=O)CO)Cc3c(O)c4c(c(O)c32)C(=O)c2c(OC)cccc2C4=O)OC(C)C1O)C(=O)NCC(C)O (centres undefined),GI50,786-0 renal,54.3 µg/mL
same,TGI,786-0 renal,> 150 µg/mL
same,GI50,SF-539 CNS,53 µg/mL
same,TGI,SF-539 CNS,> 150 µg/mL
same,GI50,TK-10 renal,> 150 µg/mL
same,TGI,TK-10 renal,> 150 µg/mL
same,GI50,UACC-62 melanoma,75 µg/mL
same,TGI,UACC-62 melanoma,> 150 µg/mL
same,GI50,HCT-116 colon,55.3 µg/mL
same,TGI,HCT-116 colon,> 150 µg/mL
same,GI50,MDA-MB-231 breast,119 µg/mL
same,TGI,MDA-MB-231 breast,> 150 µg/mL
same,GI50,HCT-15 colon,1.5 µg/mL
same,TGI,HCT-15 colon,1.5 µg/mL
same,GI50,LOX IMVI melanoma,35.2 µg/mL
same,TGI,LOX IMVI melanoma,> 150 µg/mL
same,GI50,IGROV1 ovarian,41.7 µg/mL
same,TGI,IGROV1 ovarian,> 150 µg/mL
same,GI50,SK-MEL-2 melanoma,127 µg/mL
same,TGI,SK-MEL-2 melanoma,> 150 µg/mL
same,GI50,SN12C renal,81.2 µg/mL
same,TGI,SN12C renal,> 150 µg/mL
same,GI50,UACC-257 melanoma,> 150 µg/mL
same,TGI,UACC-257 melanoma,> 150 µg/mL
same,GI50,CAKI-1 renal,90.9 µg/mL
same,TGI,CAKI-1 renal,> 150 µg/mL
same,GI50,OVCAR-4 ovarian,> 150 µg/mL
same,TGI,OVCAR-4 ovarian,> 150 µg/mL
same,GI50,RXF 393 renal,> 150 µg/mL
same,TGI,RXF 393 renal,> 150 µg/mL
same,GI50,HOP-92 NSCLC,> 150 µg/mL
same,TGI,HOP-92 NSCLC,> 150 µg/mL
same,GI50,SK-OV-3 ovarian,> 150 µg/mL
same,TGI,SK-OV-3 ovarian,> 150 µg/mL
same,GI50,NCI-H23 lung,72.9 µg/mL
same,TGI,NCI-H23 lung,> 150 µg/mL
same,GI50,PC-3 prostate,> 150 µg/mL
same,TGI,PC-3 prostate,> 150 µg/mL
same,GI50,SF-295 CNS,75.9 µg/mL
same,TGI,SF-295 CNS,> 150 µg/mL
same,GI50,SNB-19 CNS,69.2 µg/mL
same,TGI,SNB-19 CNS,> 150 µg/mL
same,GI50,DU-145 prostate,121 µg/mL
same,TGI,DU-145 prostate,> 150 µg/mL
same,GI50,K-562 leukemia,86.3 µg/mL
same,TGI,K-562 leukemia,> 150 µg/mL
same,GI50,HCC-2998 colon,116 µg/mL
same,TGI,HCC-2998 colon,> 150 µg/mL
same,GI50,SNB-75 CNS,16.1 µg/mL
same,TGI,SNB-75 CNS,> 150 µg/mL
same,GI50,MOLT-4 leukemia,7.84 µg/mL
same,TGI,MOLT-4 leukemia,96.6 µg/mL
same,GI50,NCI-H522 lung,45.5 µg/mL
same,TGI,NCI-H522 lung,> 150 µg/mL
same,GI50,OVCAR-3 ovarian,> 150 µg/mL
same,TGI,OVCAR-3 ovarian,> 150 µg/mL
same,GI50,M14 melanoma,120 µg/mL
same,TGI,M14 melanoma,> 150 µg/mL
same,GI50,MDA-N,120 µg/mL
same,TGI,MDA-N,> 150 µg/mL
same,GI50,SK-MEL-5 melanoma,28.8 µg/mL
same,TGI,SK-MEL-5 melanoma,148 µg/mL
same,GI50,SK-MEL-28 melanoma,> 150 µg/mL
same,TGI,SK-MEL-28 melanoma,> 150 µg/mL
same,GI50,HS 578T breast,> 150 µg/mL
same,TGI,HS 578T breast,> 150 µg/mL
same,GI50,MDA-MB-435,> 150 µg/mL
same,TGI,MDA-MB-435,> 150 µg/mL
same,GI50,NCI/ADR-RES ovarian,> 150 µg/mL
same,TGI,NCI/ADR-RES ovarian,> 150 µg/mL
same,GI50,HT29 colon,91.9 µg/mL
same,TGI,HT29 colon,> 150 µg/mL
same,GI50,CCRF-CEM leukemia,3.35 µg/mL and 98.9 µg/mL
same,TGI,CCRF-CEM leukemia,> 150 µg/mL
same,GI50,U251 CNS,51.2 µg/mL
same,TGI,U251 CNS,> 150 µg/mL
same,GI50,EKVX NSCLC,> 150 µg/mL
same,TGI,EKVX NSCLC,> 150 µg/mL
same,GI50,UO-31 renal,> 150 µg/mL
same,TGI,UO-31 renal,> 150 µg/mL
same,GI50,OVCAR-5 ovarian,> 150 µg/mL
same,TGI,OVCAR-5 ovarian,> 150 µg/mL
same,GI50,ACHN renal,73.9 µg/mL
same,TGI,ACHN renal,> 150 µg/mL
same,GI50,COLO 205 colon,102 µg/mL
same,TGI,COLO 205 colon,> 150 µg/mL
same,GI50,HOP-62 NSCLC,63.7 µg/mL
same,TGI,HOP-62 NSCLC,> 150 µg/mL
same,GI50,T-47D breast,70.3 µg/mL
same,TGI,T-47D breast,> 150 µg/mL
same,GI50,NCI-H226 lung,41.4 µg/mL
same,TGI,NCI-H226 lung,> 150 µg/mL
same,GI50,KM12 colon,66.3 µg/mL
same,TGI,KM12 colon,> 150 µg/mL
same,GI50,RPMI-8226 leukemia,36 µg/mL
same,TGI,RPMI-8226 leukemia,> 150 µg/mL
same,GI50,OVCAR-8 ovarian,138 µg/mL
same,TGI,OVCAR-8 ovarian,> 150 µg/mL
same,GI50,SW-620 colon,131 µg/mL
same,TGI,SW-620 colon,> 150 µg/mL
same,GI50,A498 renal,> 150 µg/mL
same,TGI,A498 renal,> 150 µg/mL
same,GI50,MCF7 breast,22 µg/mL
same,TGI,MCF7 breast,> 150 µg/mL
same,GI50,HL-60(TB) leukemia,1.32 µg/mL and 62.8 µg/mL
Cc1ccc(S(=O)(=O)n2cc(-c3cc(C(F)(F)F)ccn3)c3cc(Br)ccc32)cc1,TGI,786-0 renal,36.3 µM
same,TGI,SF-539 CNS,39.5 µM
same,TGI,TK-10 renal,44.8 µM
same,TGI,UACC-62 melanoma,33.3 µM
same,TGI,HCT-116 colon,53 µM
same,TGI,MDA-MB-231 breast,46.5 µM
same,TGI,HCT-15 colon,> 100 µM
same,TGI,LOX IMVI melanoma,92.2 µM
same,TGI,SK-MEL-2 melanoma,10.8 µM
same,TGI,SN12C renal,88 µM
same,TGI,UACC-257 melanoma,> 100 µM
same,TGI,CAKI-1 renal,38.6 µM
same,TGI,OVCAR-4 ovarian,29.7 µM
same,TGI,RXF 393 renal,45.1 µM
same,TGI,HOP-92 NSCLC,35.3 µM
same,TGI,SK-OV-3 ovarian,35.1 µM
same,TGI,NCI-H23 lung,31.1 µM
same,TGI,PC-3 prostate,41.7 µM
same,TGI,SF-295 CNS,67.7 µM
same,TGI,MALME-3M melanoma,52.7 µM
same,TGI,SNB-19 CNS,37.5 µM
same,TGI,DU-145 prostate,> 100 µM
same,TGI,K-562 leukemia,> 100 µM
same,TGI,HCC-2998 colon,62.6 µM
same,TGI,MOLT-4 leukemia,> 100 µM
same,TGI,OVCAR-3 ovarian,30.7 µM
same,TGI,M14 melanoma,> 100 µM
same,TGI,MDA-N,> 100 µM
same,TGI,SK-MEL-5 melanoma,82.9 µM
same,TGI,SK-MEL-28 melanoma,62.6 µM
same,TGI,HS 578T breast,41.3 µM
same,TGI,MDA-MB-435,> 100 µM
same,TGI,NCI/ADR-RES ovarian,> 100 µM
same,TGI,HT29 colon,> 100 µM
same,TGI,CCRF-CEM leukemia,> 100 µM
same,TGI,U251 CNS,34.3 µM
same,TGI,SF-268 CNS,93.9 µM
same,TGI,EKVX NSCLC,> 100 µM
same,TGI,SR leukemia,> 100 µM
same,TGI,UO-31 renal,24.7 µM
same,TGI,OVCAR-5 ovarian,> 100 µM
same,TGI,ACHN renal,24.3 µM
same,TGI,NCI-H460 lung,> 100 µM
same,TGI,COLO 205 colon,> 100 µM
same,TGI,HOP-62 NSCLC,29.5 µM
same,TGI,A549 NSCLC,51.8 µM
same,TGI,T-47D breast,18.9 µM
same,TGI,NCI-H226 lung,57 µM
same,TGI,KM12 colon,> 100 µM
same,TGI,RPMI-8226 leukemia,> 100 µM
same,TGI,SW-620 colon,> 100 µM
same,TGI,A498 renal,46.9 µM
same,TGI,MCF7 breast,26 µM
same,TGI,HL-60(TB) leukemia,> 100 µM
